Assay results reported in patent US11807627B2, “Morphic forms of complement factor D inhibitors” (priority 2018, dated 2023).

Assays:
Format in all cases: physicochemical
[1] = Storage stability of Compound 3 forms (80° C., 40° C./75% RH, 25° C./60% RH, ambient); details: for 1 week stability: 40° C./75% RH XRPD (uncapped): WC = weakly crystalline
Protocol: No changes by XRPD or HPLC purity were observed when the material was stored at 40° C./75% RH, 80° C. or under ambient conditions.

[2] = Competitive slurries (Example 11)
Protocol: About 10 mg of Form A, Form B and Form J were weighed separately and the solids were combined into one vial. An appropriate volume of selected solvent was then added to form a slurry. Slurries were then agitated under ambient or elevated temperatures for about 48 hours. Post agitation, solids were isolated using centrifuge filtration and XRPD analysis was collected. Table 23 below details selected solvent systems and volumes used.
Solvent was re-introduced (volumes as per Table 24) to the samples and the samples were agitated for a further 72 hours as no single polymorphic form was returned from the experiments after 48 hours agitation. Solids were isolated using centrifuge filtration and XRPD analysis was collected.
Samples were repeated in 2-propanol and 2-propanol/heptane (70/30% v/v) at 60° C. using the above procedure. Samples were agitated for 24 hours and solvent volumes can be found in Table 24 below. […] Isolation of single forms via competitive slurrying appeared to be solvent dependent, as Forms B and J were produced from acetone and acetonitirile, respsectively. […] Both Forms A and B could be isolated from competitive slurrying experiments from different solvent systems but neither was exclusively predominant at a specific temperature.
An additional competitive slurry experiment was conducted. Approximately 20 mg of Form A and Form B were weighed into separate vials. […]

[3] = Hygroscopicity / dynamic vapour sorption (DVS); details: for DVS: hygroscopicity: Table 27A
Protocol: (§1) Approximately, 10-20 mg of sample were placed into a mesh vapour sorption balance pan and loaded into a DVS Intrinsic dynamic vapour sorption balance by Surface Measurement Systems. The sample was subjected to a ramping profile from 40-90% relative humidity (RH) at 10% increments, maintaining the sample at each step until a stable weight had been achieved (dm/dt 0.004%, minimum step length 30 minutes, maximum step length 500 minutes) at 25° C. After completion of the sorption cycle, the sample was dried using the same procedure to 0% RH and then a second sorption cycle back to 40% RH. Two cycles were performed. The weight change during the sorption/desorption cycles were plotted, allowing for the hygroscopic nature of the sample to be determined. XRPD analysis was then carried out on any solid retained.
as §1, with “Approximately, 10” for “Approximately, 10-20”, “sample was” for “sample were”, “a DVS-1” for “a DVS Intrinsic”

[4] = Thermogravimetric/differential thermal analysis (TG/DTA)
Protocol: Approximately, 5 mg of material was weighed into an open aluminium pan and loaded into a simultaneous thermogravimetric/differential thermal analyzer (TG/DTA) and held at room temperature. The sample was then heated at a rate of 10° C./min from 20° C. to 400° C. during which time the change in sample weight occurred was recorded along with any differential thermal events (DTA). Nitrogen was used as the purge gas at a flow rate of 300 cm^3/min.

[5] = Differential scanning calorimetry (DSC); details: for DSC: Melting: onset; for DSC: Melting / DSC: Melting (peak): Table 27A
Protocol: DSC was performed using a TA Instruments 2920 or Q2000 differential scanning calorimeter. Temperature calibration was performed using NIST-traceable indium metal. The sample was placed into an aluminum DSC pan, covered with a lid, and the weight was accurately recorded. A weighed aluminum pan configured as the sample pan was placed on the reference side of the cell. The method code on the thermogram is an abbreviation for the start and end temperature as well as the heating rate; e.g., -30-250-10 means “from −30° C. to 250° C., at 10° C./min”. The following table summarizes the abbreviations used in each image for pan configurations: […]

[6] = Thermal stability by TGA; details: for Thermal events from SSCI report: mass/weight loss: up to 250° C.
Protocol: TG analyses were performed using a TA Instruments Q5000 IR thermogravimetric analyzer. Temperature calibration was performed using nickel and Alumel™. Each sample was placed in an aluminum pan. The sample was hermetically sealed, the lid pierced, then inserted into the TG furnace. The furnace was heated under nitrogen. The method code on the thermogram is an abbreviation for the start and end temperature as well as the heating rate; e.g., […] means “from 25° C. to 350° C., at 10° C./min”.

SMILES	1 week stability: 40° C./75% RH HPLC (uncapped) ([1]; 1 week)	1 week stability: 80° C. HPLC (capped) ([1]; 1 week)	1 week stability: 80° C. XRPD (capped) ([1]; 1 week)	1 week stability: 40° C./75% RH XRPD (uncapped) ([1]; 1 week)	DVS analysis: hygroscopic nature ([3]; 25° C.)	DVS: hygroscopicity [3]	DVS uptake as equivalents of water ([3]; at / up to 90% RH) [equiv. water]	Onset Temp: Melting ([4]; Table 22B)	TG/DTA: Melting ([4]; Table 27A)	DSC: Melting [5]	DSC: Melting (peak) [5]	Thermal events from SSCI report: mass/weight loss [6]	other results
CC(=O)c1nn(CC(=O)N2[C@H](C(=O)Nc3nc(Br)ccc3C)C[C@@]3(C)C[C@@H]23)c2ccc(-c3cnc(C)nc3)cc12 [Compound 3 Form A]	99.7% (by % (by relative area)	99.7% (by % (by relative area)	Form A	WC Form A	hygroscopic	Hygroscopic	2.5	139.4, melting ° C.	Melting 139.4 °C	Melting 138 °C (peak	151.4° C.)	0.8% mass loss	Stability: form by XRPD after storage ([1]; 25° C./60% RH, capped vial): Form A; Stability: form by XRPD after storage ([1]; 40° C./75% RH (uncapped)): predominantly Form A; Stability: purity change after storage ([1]; 40° C./75% RH (uncapped)): no purity change; Stability: form by XRPD after storage (repeat study) ([1]; 40° C./75% RH, capped and uncapped vials): weakly crystalline (WC) Form A; Stability: purity by HPLC (relative area) ([1]; 80° C.): no reduction in purity; Relative stability in competitive slurry ([2]; Form A, Form B and Form J, conversion of Form B to Form A in acetone over 72 hours): may be the most stable form; DVS total uptake ([3]; at 90% RH, 25° C.): 6.9%; DVS sharp uptake ([3]; between 50-60% RH): 3.0%; DVS uptake as equivalents of water ([3]; between 50-60% RH): 1.0 equiv. water; Onset Temp: decomposition ([4]; Table 22B): 209.0 °C; Onset Temp: melting (second event) ([4]; Table 22B): 153.9, ° C.; TG/DTA: decomposition ([4]; Table 27A): decomposition 209 °C; TG/DTA: melting (second event) ([4]; Table 27A): melting 153.9° C.,; Mass loss within the TG trace ([4]; up to 250° C.): 0.8%; Thermal events from SSCI report: Melt ([5]; SSCI report): Melt 133-150 °C
CC(=O)c1nn(CC(=O)N2[C@H](C(=O)Nc3nc(Br)ccc3C)C[C@@]3(C)C[C@@H]23)c2ccc(-c3cnc(C)nc3)cc12 [Compound 3, (1R,3S,5R)-2-(2-(3-acetyl-5-(2-methylpyrimidin-5-yl)-1H-indazol-1-yl)acetyl)-N-(6-bromo-3-methylpyridin-2-yl)-5-methyl-2-azabicyclo[3.1.0]hexane-3-carboxamide]	–	–	–	–	–	–	–	–	–	–	–	–	Hygroscopicity [3]: Non-hygroscopic; Hygroscopicity: moisture uptake ([3]; at 60% RH): < 5%; Thermal Stability by TGA ([6]; to 250° C.): ~0.8% wt loss to 250 °C
CC(=O)c1nn(CC(=O)N2[C@H](C(=O)Nc3nc(Br)ccc3C)C[C@@]3(C)C[C@@H]23)c2ccc(-c3cnc(C)nc3)cc12 [Form B]	99.8% (by % (by relative area)	99.9% (by % (by relative area)	Form B	Form B	slightly hygroscopic	Slightly hygroscopic	0.1	Melting 179.8 °C	Melting 178.4 °C	Melting 178.4 °C	(peak 186.3° C.)	1.3%	1 week stability: Ambient conditions HPLC (capped) ([1]; 1 week): 99.8% (by % (by relative area); 1 week stability: Ambient conditions XRPD (capped) ([1]; 1 week): Form B; Stability: changes by XRPD or HPLC purity ([1]; stored at 40° C./75% RH, 80° C. or under ambient conditions): No changes; Relative stability in competitive slurry ([2]; Form A and Form B in saturated Compound 3 solutions, ambient and elevated temperature, about 2 weeks): likely the most thermodynamically stable form; DVS uptake ([3]; up to 90% RH): 0.26 wt %; Thermal events from SSCI report: thermal event temperature ([5]; SSCI report, event not named): ~176 °C
